According to patent US20120258980A1, “Antibacterial Agent for Drug-Resistant Bacteria, Method for Screening for Same, and Use of Same” (priority 2009, published 2012):
Converted amounts (≈) assume the structure as drawn. Like-named read-outs stand apart in the source and are kept apart here.

Tests used:
[1] = test system: methicillin-susceptible S. aureus (MSSA), MRSA and mutants thereof; assay: MIC measurement, Test Example 3 (MSSA, MRSA and sequential gyrA/grlA quinolone-resistant mutants); format: cell-based, Staphylococcus aureus; details: Staphylococcus aureus
How it was run: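 Clinical isolates and stepwise gyrA/grlA quinolone-resistant mutants grown overnight at 37° C in TSB, adjusted to A578 0.3 in CAMHB, diluted 500-fold and mixed 1:1 with drug dilutions in CAMHB.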

[2] = test system: VISA clinical isolates of MRSA (VI-MRSA) and of MSSA (VI-MSSA); assay: microbe, parasite or virus in culture; format: cell-based, Staphylococcus aureus
How it was run: (§1)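 Strains were grown overnight at 37° C in TSB, adjusted in CAMHB to 0.3 absorbance at 578 nm and diluted 500-fold before equal-volume addition to compound dilutions.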

VRSA clinical isolates = assay: microbe, parasite or virus in culture; format: cell-based; details: Staphylococcus aureus
How it was run: as §1

Enterococcus faecalis = assay: MIC measurement, Test Example 6 (enterococcus); format: cell-based; details: Enterococcus faecalis, read-out: MIC
How it was run: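 E. faecalis strains, including vancomycin-resistant NCTC12201 and NCTC12203, pre-grown overnight in TSB at 37° C, set to A578 0.3 in CAMHB, then diluted 500-fold.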

C[C@@H]1CN(c2c(F)c(N)c3c(=O)c(C(=O)O)cn(C4CC4)c3c2F)C[C@H](C)N1 [SPFX, sparfloxacin]
MIC ([1]; FDA209P / MRSA / MSSA, FDA209P (MSSA), control, read-out: MIC): ≤ 0.063 µg/mL
MIC ([1]; MR5867 (MRSA), clinical isolate parent strain, no mutation): ≤ 0.063 µg/mL
MIC ([1]; MR5867-1, first-step quinolone-resistant mutant, grlA E84K): ≤ 0.063 µg/mL
MIC ([1]; MS5935 (MSSA), clinical isolate parent strain, no mutation, read-out: MIC): ≤ 0.063 µg/mL
MIC ([1]; MS5935-1, first-step quinolone-resistant mutant, grlA S80F): ≤ 0.063 µg/mL
MIC ([1]; MS5935-3, third-step mutant, further grlA E84K): 32 µg/mL (≈ 81.5 µM)
MIC ([1]; MS5952 (MSSA), clinical isolate parent strain, no mutation, read-out: MIC): ≤ 0.063 µg/mL
MIC ([2]; Staphylococcus aureus, 99/3700-W, VI-MRSA, The United Kingdom): 16 µg/mL (≈ 40.8 µM)
MIC ([2]; Staphylococcus aureus, 99/3759-V, VI-MRSA, The United Kingdom): 16 µg/mL (≈ 40.8 µM)
MIC ([2]; Staphylococcus aureus, 28160, VI-MRSA, South African Republic): 32 µg/mL (≈ 81.5 µM)
MIC ([2]; Staphylococcus aureus, 98141, VI-MRSA, France): 16 µg/mL (≈ 40.8 µM)
MIC ([2]; Staphylococcus aureus, A7 (JCSC4842), VI-MRSA, Taiwan): 8 µg/mL (≈ 20.4 µM)
MIC ([2]; Staphylococcus aureus, AMC11094, VI-MRSA, Korea): 32 µg/mL (≈ 81.5 µM)
MIC ([2]; Staphylococcus aureus, B7 (JCSC4852), VI-MRSA, Taiwan): 8 µg/mL (≈ 20.4 µM)
MIC ([2]; Staphylococcus aureus, BR1, VI-MRSA, Brazil): 32 µg/mL (≈ 81.5 µM)
MIC ([2]; Staphylococcus aureus, BR2, VI-MRSA, Brazil): 32 µg/mL (≈ 81.5 µM)
MIC ([2]; Staphylococcus aureus, BR3, VI-MRSA, Brazil): 32 µg/mL (≈ 81.5 µM)
MIC ([2]; Staphylococcus aureus, BR4, VI-MRSA, Brazil): 16 µg/mL (≈ 40.8 µM)
MIC ([2]; Staphylococcus aureus, BR5, VI-MRSA, Brazil): 16 µg/mL (≈ 40.8 µM)
MIC ([2]; Staphylococcus aureus, HIP06297, VI-MRSA, America): 8 µg/mL (≈ 20.4 µM)
MIC ([2]; Staphylococcus aureus, HIP06854, VI-MRSA, America): 16 µg/mL (≈ 40.8 µM)
MIC ([2]; Staphylococcus aureus, HIP07920, VI-MRSA, America): 16 µg/mL (≈ 40.8 µM)
MIC ([2]; Staphylococcus aureus, HIP07930, VI-MRSA, America): 16 µg/mL (≈ 40.8 µM)
MIC ([2]; Staphylococcus aureus, HIP08926, VI-MRSA, America): 16 µg/mL (≈ 40.8 µM)
MIC ([2]; Staphylococcus aureus, HIP09143, VI-MRSA, America): 16 µg/mL (≈ 40.8 µM)
MIC ([2]; Staphylococcus aureus, HIP09313, VI-MRSA, America): 8 µg/mL (≈ 20.4 µM)
MIC ([2]; Staphylococcus aureus, HIP09433, VI-MRSA, America): 64 µg/mL (≈ 163 µM)
MIC ([2]; Staphylococcus aureus, HIP09662, VI-MRSA, America): 16 µg/mL (≈ 40.8 µM)
MIC ([2]; Staphylococcus aureus, HIP09735, VI-MRSA, America): 16 µg/mL (≈ 40.8 µM)
MIC ([2]; Staphylococcus aureus, HIP09737, VI-MSSA, America): 16 µg/mL (≈ 40.8 µM)
MIC ([2]; Staphylococcus aureus, HIP09740, VI-MRSA, America): 16 µg/mL (≈ 40.8 µM)
MIC ([2]; Staphylococcus aureus, HIP10267, VI-MRSA, America): 16 µg/mL (≈ 40.8 µM)
MIC ([2]; Staphylococcus aureus, HIP10540, VI-MRSA, America): 16 µg/mL (≈ 40.8 µM)
MIC ([2]; Staphylococcus aureus, HIP12864, VI-MRSA, America): 32 µg/mL (≈ 81.5 µM)
MIC ([2]; Staphylococcus aureus, HIP13036, VI-MRSA, America): 4 µg/mL (≈ 10.2 µM)
MIC ([2]; Staphylococcus aureus, HIP13057, VI-MRSA, America): 8 µg/mL (≈ 20.4 µM)
MIC ([2]; Staphylococcus aureus, IL (HIP7737), VI-MRSA, America): 32 µg/mL (≈ 81.5 µM)
MIC ([2]; Staphylococcus aureus, JCSC7193, VI-MRSA, Thailand): 16 µg/mL (≈ 40.8 µM)
MIC ([2]; Staphylococcus aureus, JCSC7195, VI-MRSA, Thailand): 32 µg/mL (≈ 81.5 µM)
MIC ([2]; Staphylococcus aureus, JCSC7203, VI-MRSA, Thailand): 16 µg/mL (≈ 40.8 µM)
MIC ([2]; Staphylococcus aureus, LIM2, VI-MRSA, France): 16 µg/mL (≈ 40.8 µM)
MIC ([2]; Staphylococcus aureus, LY-1999-01, VI-MSSA, Oman): 2 µg/mL (≈ 5.1 µM)
MIC ([2]; Staphylococcus aureus, LY-1999-03, VI-MRSA, Oman): 8 µg/mL (≈ 20.4 µM)
MIC ([2]; Staphylococcus aureus, MI (HIP5827), VI-MRSA, America): 32 µg/mL (≈ 81.5 µM)
MIC ([2]; Staphylococcus aureus, MRSA / MSSA / NRS 76 / VISA, NRS76, VI-MSSA, America): 32 µg/mL (≈ 81.5 µM)
MIC ([2]; Staphylococcus aureus, MRSA / MSSA / NRS 79 / VISA, NRS79, VI-MRSA, America): 16 µg/mL (≈ 40.8 µM)
MIC ([2]; Staphylococcus aureus, MRSA / MSSA / NRS 118 / VISA, NRS118, VI-MRSA, America): 32 µg/mL (≈ 81.5 µM)
MIC ([2]; Staphylococcus aureus, MRSA / MSSA / NRS 126 / VISA, NRS126, VI-MRSA, America): 8 µg/mL (≈ 20.4 µM)
MIC ([2]; Staphylococcus aureus, Mu3, VI-MRSA, Japan): 16 µg/mL (≈ 40.8 µM)
MIC ([2]; Staphylococcus aureus, Mu50, VI-MRSA, Japan): 16 µg/mL (≈ 40.8 µM)
MIC ([2]; Staphylococcus aureus, NJ (HIP5836), VI-MRSA, America): 32 µg/mL (≈ 81.5 µM)
MIC ([2]; Staphylococcus aureus, P1V44, VI-MSSA, Belgium): 4 µg/mL (≈ 10.2 µM)
MIC ([2]; Staphylococcus aureus, PC, VI-MRSA, America): 16 µg/mL (≈ 40.8 µM)
MIC ([2]; Staphylococcus aureus, SA MER-S6, VI-MSSA, France): 0.25 µg/mL (≈ 0.637 µM)
MIC ([2]; Staphylococcus aureus, SA MER-S12, VI-MSSA, France): 0.25 µg/mL (≈ 0.637 µM)
MIC ([2]; Staphylococcus aureus, SA MER-S20, VI-MSSA, France): 0.125 µg/mL (≈ 0.319 µM)
MIC (VRSA clinical isolates; VRS1, VRSA, Michigan): 8 µg/mL (≈ 20.4 µM)
MIC (VRSA clinical isolates; VRS2, VRSA, Pennsylvania): 8 µg/mL (≈ 20.4 µM)
MIC (VRSA clinical isolates; VRS3, VRSA, New York): 16 µg/mL (≈ 40.8 µM)
MIC (VRSA clinical isolates; VRS4, VRSA, New York): 16 µg/mL (≈ 40.8 µM)
MIC (VRSA clinical isolates; VRS5, VRSA, Michigan): 128 µg/mL (≈ 326 µM)
MIC (VRSA clinical isolates; VRS6, VRSA, Michigan): 16 µg/mL (≈ 40.8 µM)
MIC (VRSA clinical isolates; VRS7, VRSA, Michigan): 16 µg/mL (≈ 40.8 µM)
MIC (Enterococcus faecalis; E. faecalis 36-15672, quinolone-susceptible enterococci): 1 µg/mL (≈ 2.55 µM)
MIC (Enterococcus faecalis; E. faecalis 36-15673, quinolone-susceptible enterococci): 1 µg/mL (≈ 2.55 µM)
MIC (Enterococcus faecalis; E. faecalis 36-15678, quinolone-susceptible enterococci): 0.5 µg/mL (≈ 1.27 µM)
MIC (Enterococcus faecalis; E. faecalis 36-15686, quinolone-resistant enterococci): 128 µg/mL (≈ 326 µM)
MIC (Enterococcus faecalis; E. faecalis 36-15688, quinolone-susceptible enterococci): 0.5 µg/mL (≈ 1.27 µM)
MIC (Enterococcus faecalis; E. faecalis 36-15694, quinolone-resistant enterococci): 64 µg/mL (≈ 163 µM)
MIC (Enterococcus faecalis; E. faecalis 36-15696, quinolone-susceptible enterococci): 0.5 µg/mL (≈ 1.27 µM)
MIC (Enterococcus faecalis; E. faecalis 36-15703, quinolone-resistant enterococci): 32 µg/mL (≈ 81.5 µM)
MIC (Enterococcus faecalis; E. faecalis 36-15716, quinolone-resistant enterococci): 64 µg/mL (≈ 163 µM)
MIC (Enterococcus faecalis; E. faecalis 36-15718, quinolone-susceptible enterococci): 0.5 µg/mL (≈ 1.27 µM)
MIC (Enterococcus faecalis; E. faecalis 36-15720, quinolone-susceptible enterococci): 1 µg/mL (≈ 2.55 µM)
MIC (Enterococcus faecalis; E. faecalis 36-15722, quinolone-resistant enterococci): 64 µg/mL (≈ 163 µM)
MIC (Enterococcus faecalis; E. faecalis 36-15726, quinolone-resistant enterococci): 64 µg/mL (≈ 163 µM)
MIC (Enterococcus faecalis; E. faecalis 36-15730, quinolone-susceptible enterococci): 1 µg/mL (≈ 2.55 µM)
MIC (Enterococcus faecalis; E. faecalis 36-15736, quinolone-susceptible enterococci): 0.5 µg/mL (≈ 1.27 µM)
MIC (Enterococcus faecalis; E. faecalis 36-15741, quinolone-susceptible enterococci): 1 µg/mL (≈ 2.55 µM)
MIC (Enterococcus faecalis; NCTC 12201 / VRE, E. faecalis NCTC12201, vancomycin-resistant (VRE), quinolone-susceptible enterococci): 0.5 µg/mL (≈ 1.27 µM)
MIC (Enterococcus faecalis; NCTC 12203 / VRE, E. faecalis NCTC12203, vancomycin-resistant (VRE), quinolone-susceptible enterococci): 0.5 µg/mL (≈ 1.27 µM)
